PMC8508710, “Biochemical Characterization of 13-Lipoxygenases of Arabidopsis thaliana” (International Journal of Molecular Sciences, 2021)

Columns and labels:
LOX2 [1] = molecular target: T1, LOX2 (Arabidopsis thaliana, UniProt P38418); assay: LOX2 activity, oxygen electrode (polarography); type: biochemical; set-up: made in house; host or cells: E. coli Nico21(DE3), pET15b; conditions: for activity at 280 µM: enzyme incubated with 280 µM chemical (1/10 vol of 2.8 mM), injected into 30 µM LeA, 50 mM Tris-HCl pH 7.2, vs solvent control, read-out: Polarography Relative Activity (%) LOX2; for Increase of LOX2 activity in comparison to control: 1 mM cation, LeA 30 µM, pH 8.0; for Relative Activity (%) LOX2: 1 mM metal salt, LeA 30 µM in 20 mM HEPES pH 8.0, oxygen consumption vs control without metal
T1 sequence (P38418 71-896): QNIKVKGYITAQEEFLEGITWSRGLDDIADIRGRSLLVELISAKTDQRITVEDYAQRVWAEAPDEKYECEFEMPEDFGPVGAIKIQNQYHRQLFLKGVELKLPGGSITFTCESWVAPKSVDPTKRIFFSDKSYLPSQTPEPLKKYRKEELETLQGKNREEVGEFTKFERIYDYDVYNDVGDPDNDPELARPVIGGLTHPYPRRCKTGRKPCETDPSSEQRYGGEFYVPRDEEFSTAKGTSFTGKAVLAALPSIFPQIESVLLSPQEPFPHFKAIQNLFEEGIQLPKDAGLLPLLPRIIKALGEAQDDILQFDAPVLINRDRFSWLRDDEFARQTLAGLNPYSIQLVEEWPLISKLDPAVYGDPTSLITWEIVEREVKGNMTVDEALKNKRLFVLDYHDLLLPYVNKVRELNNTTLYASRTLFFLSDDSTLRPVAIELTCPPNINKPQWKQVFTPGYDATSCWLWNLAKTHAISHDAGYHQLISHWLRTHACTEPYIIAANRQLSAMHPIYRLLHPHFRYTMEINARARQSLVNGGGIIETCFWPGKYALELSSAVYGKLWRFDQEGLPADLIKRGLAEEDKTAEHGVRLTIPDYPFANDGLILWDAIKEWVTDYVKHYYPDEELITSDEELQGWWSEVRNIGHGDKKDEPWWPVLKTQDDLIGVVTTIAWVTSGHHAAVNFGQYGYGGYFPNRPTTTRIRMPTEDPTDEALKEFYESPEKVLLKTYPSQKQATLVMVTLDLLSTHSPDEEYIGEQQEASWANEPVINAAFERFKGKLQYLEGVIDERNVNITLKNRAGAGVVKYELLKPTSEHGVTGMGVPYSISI

LOX6 [2] = molecular target: T2, LOX6 (Arabidopsis thaliana, UniProt Q9CAG3); assay: LOX6 activity, oxygen electrode (polarography); type: biochemical; set-up: made in house; host or cells: E. coli Nico21(DE3), pEXP5-NT/TOPO; conditions: for activity at 280 µM: enzyme incubated with 280 µM chemical (1/10 vol of 2.8 mM), injected into 30 µM LeA, 50 mM Tris-HCl pH 7.2, vs solvent control, read-out: Polarography Relative Activity (%) LOX6; for Increase of LOX6-catalyzed oxygen consumption: 1 mM cation, LeA 30 µM, pH 8.0; for Relative Activity (%) LOX6: 1 mM metal salt, LeA 30 µM in 20 mM HEPES pH 8.0, oxygen consumption vs control without metal
T2 sequence (Q9CAG3 41-917): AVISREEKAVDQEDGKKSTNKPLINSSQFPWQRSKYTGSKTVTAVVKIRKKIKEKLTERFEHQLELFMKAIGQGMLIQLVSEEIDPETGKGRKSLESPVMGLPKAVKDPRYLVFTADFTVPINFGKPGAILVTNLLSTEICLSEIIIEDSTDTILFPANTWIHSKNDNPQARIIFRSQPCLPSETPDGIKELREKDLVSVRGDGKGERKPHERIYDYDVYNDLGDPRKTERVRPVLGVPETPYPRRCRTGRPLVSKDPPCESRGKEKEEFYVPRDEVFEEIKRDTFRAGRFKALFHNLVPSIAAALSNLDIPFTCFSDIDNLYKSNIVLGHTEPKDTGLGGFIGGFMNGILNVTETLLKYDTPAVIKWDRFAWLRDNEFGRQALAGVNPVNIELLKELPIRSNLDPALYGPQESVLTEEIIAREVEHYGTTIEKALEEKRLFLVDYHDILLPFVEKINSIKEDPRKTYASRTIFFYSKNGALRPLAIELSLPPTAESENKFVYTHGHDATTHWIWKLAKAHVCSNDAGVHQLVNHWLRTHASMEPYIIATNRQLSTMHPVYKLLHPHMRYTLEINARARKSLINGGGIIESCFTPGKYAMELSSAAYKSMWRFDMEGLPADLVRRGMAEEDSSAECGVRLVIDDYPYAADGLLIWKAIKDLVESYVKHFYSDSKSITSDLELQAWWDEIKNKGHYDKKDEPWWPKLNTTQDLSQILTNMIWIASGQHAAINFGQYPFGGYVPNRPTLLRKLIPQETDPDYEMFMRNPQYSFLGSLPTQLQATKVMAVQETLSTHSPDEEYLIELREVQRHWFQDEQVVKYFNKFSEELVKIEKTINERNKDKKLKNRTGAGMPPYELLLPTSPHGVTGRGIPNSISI

LOX2 [3] = molecular target: T1, LOX2; assay: LOX2 activity, spectrophotometric (conjugated diene formation at 234 nm); conditions: for Mode of inhibition: Lineweaver–Burk plot, 12-OPDA tested at 226 µM; for Photometry Relative activity (%) LOX2: enzyme 0.225 µg/µL incubated 10 min 30 °C with 280 µM chemical, 4.8 µM LeA, 50 mM Tris-HCl pH 7.2, vs solvent control; for Relative Activity (%) LOX2: E. coli lysate in 50 mM TRIS pH 8.0 diluted 1:10, 50 mM HEPES pH 8.0 + 1 mM metal salt, LeA, 234 nm; for LOX2 activity in presence of Cd2+: 9 µM LeA, 20 mM HEPES pH 8.0, control 0.8 ± 0.2
LOX6 [4] = molecular target: T2, LOX6; assay: LOX6 activity, spectrophotometric (conjugated diene formation at 234 nm); conditions: for Photometry Relative activity (%) LOX6: enzyme 0.225 µg/µL incubated 10 min 30 °C with 280 µM chemical, 4.8 µM LeA, 50 mM Tris-HCl pH 7.2, vs solvent control; for Relative Activity (%) LOX6: E. coli lysate in 50 mM TRIS pH 8.0 diluted 1:10, 50 mM HEPES pH 8.0 + 1 mM metal salt, LeA, 234 nm

Relative Activity (%) LOX2 (LOX2 [1]) [%]	Relative Activity (%) LOX6 (LOX6 [2])	Relative Activity (%) LOX2 (LOX2 [3]) [%]	Relative Activity (%) LOX6 (LOX6 [4]) [%]	Compound	activity at 280 µM (LOX2 [1]) [%]	activity at 280 µM (LOX6 [2]) [%]	Photometry Relative activity (%) LOX2 (LOX2 [3]) [%]	Photometry Relative activity (%) LOX6 (LOX6 [4]) [%]	also measured
				CCC=CCC1C(=O)C=CC1CCCCCCCC(=O)O (stereo not drawn) [12-OPDA, cis-(+)-12-oxophytodienoic acid]	64 ± 4	50 ± 10	49 ± 10	59 ± 10	IC50 (LOX2 [3]): 280 to 338 µM; Mode of inhibition (LOX2 [3]): non-competitive; IC50 (LOX6 [4]): 280 to 338 µM; Mode of inhibition (LOX6 [4]; 226 µM): non-competitive
690 ± 60	121 ± 15%	550±40	107±11	[Ca+2].[Cl-].[Cl-] [CaCl2]					Increase of LOX2 activity in comparison to control (LOX2 [1]): 590%; Increase of LOX6-catalyzed oxygen consumption (LOX6 [2]): 21%
				CC/C=C\CC1C(=O)CCC1CC(=O)OC (centres unmarked) [MJ, methyl jasmonate]	87 ± 10	94 ± 6	62 ± 10	86 ± 6	Mode of inhibition (LOX2 [3]): competitive
170 ± 18	142 ± 15%	188±28	123±10	[Cl-].[Cl-].[Mg+2] [MgCl2]					Increase of LOX2 activity in comparison to control (LOX2 [1]): 70%; Increase of LOX6-catalyzed oxygen consumption (LOX6 [2]): 42%
				O=C(O)c1ccccc1O [SA, salicylic acid]	96 ± 7	103 ± 5			
				O=C(O)/C=C/CCCCCCCCC(=O)O [TA, traumatic acid]	95 ± 8	101 ± 12	105 ± 5	100 ± 9	

Compound	Relative Activity (%) LOX2 (LOX2 [1]) [%]	Relative Activity (%) LOX6 (LOX6 [2])	Relative Activity (%) LOX2 (LOX2 [3]) [%]	Relative Activity (%) LOX6 (LOX6 [4]) [%]	activity at 280 µM (LOX2 [1]) [%]	activity at 280 µM (LOX6 [2]) [%]	Photometry Relative activity (%) LOX2 (LOX2 [3]) [%]	Photometry Relative activity (%) LOX6 (LOX6 [4]) [%]	also measured
O=S(=O)([O-])[O-].[Cd+2] [CdSO4]	220 ± 18	no activity	950±240	40±10					LOX2 activity in presence of Cd2+ (LOX2 [3]; 40 µM Cd2+, listed as Cd2+): 2.3 ± 0.3 nmol/s/mg; LOX2 activity in presence of Cd2+ (LOX2 [3]; 40 µM Cd2+, listed as Cd^2+): 2.3 ± 0.3 nmol/s/mg; LOX2 activity in presence of Cd2+ (LOX2 [3]; 150 µM Cd2+, listed as Cd2+): 5.2 ± 0.9 nmol/s/mg; LOX2 activity in presence of Cd2+ (LOX2 [3]; 150 µM Cd2+, listed as Cd^2+): 5.2 ± 0.9 nmol/s/mg; LOX2 activity in presence of Cd2+ (LOX2 [3]; 1180 µM Cd2+, listed as Cd2+): 5.7 ± 0.7 nmol/s/mg; LOX2 activity in presence of Cd2+ (LOX2 [3]; 1180 µM Cd2+, listed as Cd^2+): 5.7 ± 0.7 nmol/s/mg
